Literature values in PubChem BioAssay AID1259409 (Chemical Carcinogenesis Research Information System (CCRIS), 2018).

System: rodent chemically induced tumor inhibition, incidence and multiplicity
Assay: CCRIS tumor inhibitor studies

NCCCC(N)(C(=O)O)C(F)F (stereo not drawn)
tumour outcome (control, treated, inhibition, significance) (Carcinogen: 1,2-DIMETHYLHYDRAZINE, 540-73-8, Dose [Inhibitor]: 0, 0.2% IN DRINKING WATER BEGINNING 1 D PRIOR TO CARCINOGEN TREATMENT AND CONTINUING FOR DURATION OF STUDY (STUDY DURATI, Route [Inhibitor]: ORAL, Species: RAT, Strain/Sex: SPRAGUE-DAWLEY/MALE, Target Tissue: Type of Lesion: DISTAL COLON: ADENOCARCINOMA, Dose [Carcinogen]: 20 MG/KG 1/WK FOR 20 WK, Promoter: NONE USED): 94%, 67%, 29%, p<0.01
tumour outcome (control, treated, inhibition, significance) (Carcinogen: 7,12-DIMETHYLBENZ[A]ANTHRACENE, 57-97-6, Dose [Inhibitor]: 0.3 MG IN 0.2 ML ACETONE:ETHANOL:WATER (2:1:1, V/V) 1 HR AFTER EACH PROMOTER DOSE FOR 20 WK (STUDY DURATION: 20 WK), Route [Inhibitor]: DERMAL, Species: MOUSE, Strain/Sex: CD-1/FEMALE, Target Tissue: Type of Lesion: SKIN: PAPILLOMA, Dose [Carcinogen]: 0.2 UMOL IN 0.2 ML ACETONE ONCE, Promoter: 12-O-TETRADECANOYLPHORBOL-13-ACETATE, 16561-29-8): 97%, 61%, 37%, not calculated
tumour outcome (control, treated, inhibition, significance) (Carcinogen: 7,12-DIMETHYLBENZ[A]ANTHRACENE, 57-97-6, Dose [Inhibitor]: 0.3 MG IN 0.2 ML ACETONE:ETHANOL:WATER (2:1:1,V/V) 1 HR AFTER EACH PROMOTER DOSE FOR 20 WK (STUDY DURATION: 20 WK), Route [Inhibitor]: DERMAL, Species: MOUSE, Strain/Sex: CD-1/FEMALE, Target Tissue: Type of Lesion: SKIN: PAPILLOMA, Dose [Carcinogen]: 0.2 UMOL IN 0.2 ML ACETONE ONCE, Promoter: 12-O-TETRADECANOYLPHORBOL-13-ACETATE, 16561-29-8): 84%, 63%, 25%, not calculated
tumour outcome (control, treated, inhibition, significance) (Carcinogen: 7,12-DIMETHYLBENZ[A]ANTHRACENE, 57-97-6, Dose [Inhibitor]: 1% (W/V) IN DRINKING WATER 2 D PRIOR TO 1ST PROMOTER DOSE UNTIL THE END OF EXPERIMENT (STUDY DURATION: 20 WK), Route [Inhibitor]: ORAL, Species: MOUSE, Strain/Sex: CD-1/FEMALE, Target Tissue: Type of Lesion: SKIN: PAPILLOMA, Dose [Carcinogen]: 0.2 UMOL IN 0.2 ML ACETONE ONCE, Promoter: 12-O-TETRADECANOYLPHORBOL-13-ACETATE, 16561-29-8): 100%, 43%, 57%, not calculated
tumour outcome (control, treated, inhibition, significance) (Carcinogen: 7,12-DIMETHYLBENZ[A]ANTHRACENE, 57-97-6, Dose [Inhibitor]: 2% IN DRINKING WATER (AVERAGE DAILY INTAKE: 8.53 ML/MOUSE/D) FOR 18 WK (STUDY DURATION: 18 WK), Route [Inhibitor]: ORAL, Species: MOUSE, Strain/Sex: SENCAR/FEMALE, Target Tissue: Type of Lesion: SKIN: PAPILLOMA, Dose [Carcinogen]: 10 NMOL ONCE AT 7 WK OF AGE, Promoter: 12-O-TETRADECANOYLPHORBOL-13-ACETATE, 16561-29-8): 92%, 81%, 12%, not calculated
tumour outcome (control, treated, inhibition, significance) (Carcinogen: 7,12-DIMETHYLBENZ[A]ANTHRACENE, 57-97-6, Dose [Inhibitor]: 3 MG IN 0.2 ML ACETONE:ETHANOL:WATER (2:1:1, V/V) 1 HR AFTER EACH PROMOTER DOSE FOR 20 WK (STUDY DURATION: 20 WK), Route [Inhibitor]: DERMAL, Species: MOUSE, Strain/Sex: CD-1/FEMALE, Target Tissue: Type of Lesion: SKIN: PAPILLOMA, Dose [Carcinogen]: 0.2 UMOL IN 0.2 ML ACETONE ONCE, Promoter: 12-O-TETRADECANOYLPHORBOL-13-ACETATE, 16561-29-8): 68%, 47%, 31%, not calculated
tumour outcome (control, treated, inhibition, significance) (Carcinogen: 7,12-DIMETHYLBENZ[A]ANTHRACENE, 57-97-6, Dose [Inhibitor]: 5 MG, 2 HR PRIOR TO EACH BIWEEKLY PROMOTER DOSE FOR 18 WK (STUDY DURATION: 18 WK), Route [Inhibitor]: INTRAPERITONEAL, Species: MOUSE, Strain/Sex: SENCAR/FEMALE, Target Tissue: Type of Lesion: SKIN: PAPILLOMA, Dose [Carcinogen]: 10 NMOL AT 7 WK OF AGE ONCE 18 WK, Promoter: 12-O-TETRADECANOYLPHORBOL-13-ACETATE, 16561-29-8): 92%, 77%, 16%, not calculated
tumour outcome (control, treated, inhibition, significance) (Carcinogen: 7,12-DIMETHYLBENZ[A]ANTHRACENE, 57-97-6, Dose [Inhibitor]: 6 MG IN 0.9% NACL 1 HR AFTER EACH PROMOTER DOSE (STUDY DURATION: 20 WK), Route [Inhibitor]: INTRAPERITONEAL, Species: MOUSE, Strain/Sex: CD-1/FEMALE, Target Tissue: Type of Lesion: SKIN: PAPILLOMA, Dose [Carcinogen]: 0.2 UMOL IN 0.2 ML ACETONE ONCE, Promoter: 12-O-TETRADECANOYLPHORBOL-13-ACETATE, 16561-29-8): 83%, 63%, 24%, not calculated
tumour outcome (control, treated, inhibition, significance) (Carcinogen: 7,12-DIMETHYLBENZ[A]ANTHRACENE, 57-97-6, Dose [Inhibitor]: 18 MG IN 0.9% NACL 1 HR AFTER EACH PROMOTER DOSE (STUDY DURATION: 20 WK), Route [Inhibitor]: INTRAPERITONEAL, Species: MOUSE, Strain/Sex: CD-1/FEMALE, Target Tissue: Type of Lesion: SKIN: PAPILLOMA, Dose [Carcinogen]: 0.2 UMOL IN 0.2 ML ACETONE ONCE, Promoter: 12-O-TETRADECANOYLPHORBOL-13-ACETATE, 16561-29-8): 83%, 60%, 28%, not calculated
tumour outcome (control, treated, inhibition, significance) (Carcinogen: 7,12-DIMETHYLBENZ[A]ANTHRACENE, 57-97-6, Dose [Inhibitor]: 20 MG 2/WK OR 16 WK TOGETHER WITH EACH MEZEREIN TREATMENT BEGINNING 3 WK POST CARCINOGEN DOSE (STUDY DURATION: 18 WK), Route [Inhibitor]: INTRAPERITONEAL, Species: MOUSE, Strain/Sex: SENCAR/FEMALE, Target Tissue: Type of Lesion: SKIN: PAPILLOMA, Dose [Carcinogen]: 10 NMOL ONCE FOLLOWED ONE WK LATER BY PROMOTER, Promoter: 12-O-TETRADECANOYLPHORBOL-13-ACETATE, 16561-29-8, MEZERIN, 34807-41-5, Promoter: 12-O-TETRADECANOYLPHORBOL-13-ACETATE, 16561-29-8, MEZERIN, 34807-41-5): 78%, 45%, 42%, not calculated
tumour outcome (control, treated, inhibition, significance) (Carcinogen: 7,12-DIMETHYLBENZ[A]ANTHRACENE, 57-97-6, Dose [Inhibitor]: 20 MG 2/WK TOGETHER WITH EACH PROMOTER TREATMENT BEGINNING 1 WK POST CARCINOGEN DOSE (STUDY DURATION: 18 WK), Route [Inhibitor]: INTRAPERITONEAL, Species: MOUSE, Strain/Sex: SENCAR/FEMALE, Target Tissue: Type of Lesion: SKIN: PAPILLOMA, Dose [Carcinogen]: 10 NMOL ONCE, Promoter: 12-O-TETRADECANOYLPHORBOL-13-ACETATE, 16561-29-8, MEZERIN, 34807-41-5, Promoter: 12-O-TETRADECANOYLPHORBOL-13-ACETATE, 16561-29-8, MEZERIN, 34807-41-5): 78%, 78%, 0%, not significant
tumour outcome (control, treated, inhibition, significance) (Carcinogen: 7,12-DIMETHYLBENZ[A]ANTHRACENE, 57-97-6, Dose [Inhibitor]: 20 MG 2 HR PRIOR TO EACH BIWEEKLY PROMOTER DOSE FOR 18 WK (STUDY DURATION: 18 WK), Route [Inhibitor]: INTRAPERITONEAL, Species: MOUSE, Strain/Sex: SENCAR/FEMALE, Target Tissue: Type of Lesion: SKIN: PAPILLOMA, Dose [Carcinogen]: 10 NMOL ONCE AT 7 WK OF AGE, Promoter: 12-O-TETRADECANOYLPHORBOL-13-ACETATE, 16561-29-8): 92%, 84%, 9%, not calculated
tumour outcome (control, treated, inhibition, significance) (Carcinogen: BETA IRRADIATION, Dose [Inhibitor]: 0, 1% IN DRINKING WATER DURING IRRADIATION EXPOSURE (STUDY DURATION: 950 D), Route [Inhibitor]: ORAL, Species: MOUSE, Strain/Sex: ICR/FEMALE, Target Tissue: Type of Lesion: SKIN: TUMOR, Dose [Carcinogen]: 3 GY/MIN 3/WK UNTIL EMERGENCE OF TUMORS, Promoter: NONE USED): 100%, 100%, 0%, not significant
